This is an account of results in patent publication USRE47078E1, “Polymorphic forms of N-[4-(trifluoromethyl)benzyl]-4-methoxybutyramide” (Laboratorio Farmaceutico C.T. S.R.L., priority 2007, dated 2018).

Converted amounts (≈) assume the structure as drawn.

In series [1] the test system is Rat. The conditions noted are these: compared with GHB, according to EP 0 932 597 B1; cited from earlier work.
Series [2] is described as follows: Thermodynamic stability / interconversion of the polymorphs. Format: physicochemical.
Series [3] can be described thus: Solubility of the polymorphs at different pH (HPLC assay). The format is physicochemical. Here is the method:
Both samples of powder (Form A and Form B) were used in order to evaluate the solubility properties of the two polymorphs at different pH.
The two samples were tested in the following pH conditions: • Hydrochloric acid buffer at pH=1.2 • Acetic acid at pH=3.0 • Phosphate buffer at pH=3.0 • Phosphate buffer at pH=4.6 • Phosphate buffer at pH=6.0 • Phosphate buffer at pH=7.4 • Alkaline phosphate buffer at pH=8.0
0.5 g of each samples were dissolved in a glass flask using 100 ml of the appropriate buffer. The two samples were then kept under stirring for 30 minutes. If the samples were completed dissolved, 1 additional gram was added in the flask and stirred for 30 minutes. The procedure was repeated till the presence of undissolved product in the bottom of the flask. After such a dissolution procedure, the samples were stored for 24 hours and then the dissolved amounts of Form A and Form B, respectively, were determined by HPLC assay.

Regarding `COCCCC(=O)NCc1ccc(C(F)(F)F)cc1` [N-[4-(trifluoromethyl)benzyl]-4-methoxybutyramide], the “Potency and duration of action on motor activity” value in series [1] is “better than GHB”.
`COCCCC(=O)NCc1ccc(C(F)(F)F)cc1` [Polymorphic Form B, N-[4-(trifluoromethyl)benzyl]-4-methoxybutyramide]: the “Thermodynamic stability, conversion of one form into the other” value in series [2] is reported as “thermodynamically stable, with no conversion of one into the other”. In addition, the “Solubility, After 24 hours” value in series [3] (Water) was 162.64 µg/mL (≈ 591 µM); in series [3] (pH 1.2), 164.47 µg/mL (≈ 597 µM); in series [3] (pH 3.0 (acetic acid)), 164.84 µg/mL (≈ 599 µM); in series [3] (pH 3.0 (phosphate buffer)), 156.73 µg/mL (≈ 569 µM); in series [3] (pH 4.6) it was 147.14 µg/mL (≈ 535 µM); in series [3] (pH 6.0), 143.2 µg/mL (≈ 520 µM). Further, the results for the “Solubility, After 24 hours” value in series [3] (pH 6.8), in series [3] (pH 7.4) and in series [3] (pH 8.0) were 146.25 µg/mL (≈ 531 µM), 143.79 µg/mL (≈ 522 µM) and 146.25 µg/mL (≈ 531 µM), respectively. Further, the “Solubility, Initial evaluation” value in series [3] (Water) was found to be 125.44 µg/mL (≈ 456 µM); in series [3] (pH 1.2), 136.12 µg/mL (≈ 494 µM); in series [3] (pH 3.0 (acetic acid)) it was 143.69 µg/mL (≈ 522 µM); in series [3] (pH 3.0 (phosphate buffer)) it was 126.87 µg/mL (≈ 461 µM); in series [3] (pH 4.6) it was 129.35 µg/mL (≈ 470 µM); in series [3] (pH 6.0), 125.95 µg/mL (≈ 458 µM). The results for the “Solubility, Initial evaluation” value in series [3] (pH 6.8), in series [3] (pH 7.4) and in series [3] (pH 8.0) were 131.46 µg/mL (≈ 478 µM), 113.60 µg/mL (≈ 413 µM) and 130.61 µg/mL (≈ 474 µM), respectively. The “Differences in solubility / dissolution properties between the two forms” value in series [3] (dissolution tests on each polymorph) is “have not shown differences in the solubility properties”.
